Experiments:
[1] = system: tubulin acetylation (the client protein of HDAC6) in NB4, U87 and U2OS cells; assay: Western blot, acetylation of α-tubulin in cancer cell lines; assay type: cell-based; conditions: 5 μM for 30 h; for acetylation of tubulin: NB4 and U87 cells
[2] = system: acetylation of histone H3 (primary substrate of HDAC1 and other nuclear HDACs) in NB4, U87 and U2OS cells; assay: Western blot, acetylation of histone H3 in cancer cell lines; assay type: cell-based; conditions: 5 μM for 30 h
[3] = system: ABC derived from IPF patients; assay: 3D organoid; assay type: cell-based, human; conditions: ABC from IPF patients (n = 3), 14 days
[4] = system: TGF-β1-stimulated human lung parenchyma; assay: Human lung tissue explant model of TGF-β1-dependent fibrogenesis; assay type: cell-based; conditions: 6h 4.1 μM, TGF-β1 10 ng/ml, 7 days
[5] = system: TA98 and TA100 strains of Salmonella typhimurium; assay: Ames test with and without S9 fraction; assay type: cell-based; conditions: TA98 and TA100, with and without S9 fraction of rat liver, 1–75 μM
[6] = system: zebrafish larvae (Danio rerio); assay: Toxicity screen and optokinetic visual behaviour assay in zebrafish larvae; assay type: in vivo

SMILES | acetylation of tubulin [1] | histone H3 acetylation [2] | spheres formation [3] | mRNA expression for HDAC6 ([4]; n = 3 donors) | mRNA expression for collagen type I ([4]; n = 6 donors) | mRNA expression for collagen type III ([4]; n = 6 donors) | mRNA expression for fibronectin ([4]; n = 6 donors) | mRNA expression for α-SMA ([4]; n = 6 donors) | mutagenic effect [5] | toxic effects observed ([6]; 100 μM, 3 days old larvae treated for 2 days) | well tolerated concentration ([6]; 3 days old larvae treated for 2 days, 1-100 μM) | visual behavior versus vehicle control (0.1% DMSO) ([6]; five days old larvae, 1 to 100 μM) | acetylation of α-tubulin versus histone H3 ([1]; U2OS cell line)
CN1CCC2(CC1)c1ccccc1N(Cc1ccc(C(=O)NO)cc1)C2c1ccccc1 (racemic) [(±)-6a, (±)-N-Hydroxy-4-((1’-methyl-2-phenylspiro[indoline-3,4’-piperidin]-1-yl)methyl)benzamide] | marked acetylation of tubulin | unchanged | complete inhibition |  |  |  |  |  |  |  |  |  | 
CN1CCC2(CC1)c1ccccc1N(Cc1ccc(C(=O)NO)cc1)C2c1ccccc1F (racemic) [(±)-6d, (±)-4-((2-(2-Fluorophenyl)-1’-methylspiro[indoline-3,4’-piperidin]-1-yl)methyl)-N-hydroxybenzamide] | equally effective in inhibiting HDAC6 | also induced the acetylation of histone H3 | complete inhibition |  |  |  |  |  |  |  |  |  | 
CN1CCC2(CC1)c1ccccc1N(Cc1ccc(C(=O)NO)cc1)C2c1ccc(F)cc1 (racemic) [(±)-6e, (±)-4-((2-(4-Fluorophenyl)-1’-methylspiro[indoline-3,4’-piperidin]-1-yl)methyl)-N-hydroxybenzamide] | marked acetylation of tubulin | unchanged |  |  |  |  |  |  |  |  |  |  | 
CC1(C)c2ccccc2N(Cc2ccc(C(=O)NO)cc2)C1c1cccnc1 (racemic) [(±)-6h, (±)-4-((3,3-Dimethyl-2-(pyridin-3-yl)indolin-1-yl)methyl)-N-hydroxybenzamide] | marked acetylation of tubulin | unchanged | complete inhibition | significantly inhibited | significantly inhibited | significantly inhibited | significantly inhibited | significantly inhibited | no mutagenic effect | some larvae failed to inflate their swim bladder and presented mild cardiac edema | up to 50 μM | no significant changes | 
CC1(C)c2ccccc2N(Cc2ccc(C(=O)NO)cc2)C1c1ccncc1 (racemic) [(±)-6l] | marked acetylation of tubulin | unchanged | complete inhibition |  |  |  |  |  |  |  |  |  | preferentially promote acetylation of α-tubulin

Source: article PMC8300879 (Journal of medicinal chemistry, 2021)
